The target of this assay is kynurenine 3-monooxygenase (KMO; Recombinant human Kynurenine 3-hydroxylase) (Homo sapiens, UniProt O15229). Description: SPR (Biacore T200, KMO immobilized on CM5 chip by amine coupling, […] binding model).

pKd: −log10 of the molar value.

Sequence of kynurenine 3-monooxygenase (KMO; Recombinant human Kynurenine 3-hydroxylase) (O15229 whole entry): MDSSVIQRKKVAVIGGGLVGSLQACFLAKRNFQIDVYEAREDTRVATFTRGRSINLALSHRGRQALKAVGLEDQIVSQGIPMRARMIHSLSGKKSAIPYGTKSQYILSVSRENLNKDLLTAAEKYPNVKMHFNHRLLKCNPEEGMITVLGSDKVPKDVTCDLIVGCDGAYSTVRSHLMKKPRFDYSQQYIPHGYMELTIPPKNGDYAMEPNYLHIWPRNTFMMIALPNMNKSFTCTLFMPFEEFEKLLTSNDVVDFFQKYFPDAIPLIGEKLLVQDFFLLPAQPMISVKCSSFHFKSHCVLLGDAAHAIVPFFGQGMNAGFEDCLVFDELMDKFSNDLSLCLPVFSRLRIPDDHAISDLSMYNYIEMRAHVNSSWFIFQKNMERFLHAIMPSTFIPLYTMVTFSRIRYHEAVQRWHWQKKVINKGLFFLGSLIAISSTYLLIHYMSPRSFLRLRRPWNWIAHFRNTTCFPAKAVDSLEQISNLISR

For `CC(C)=CCC[C@](C)(O[C@@H]1O[C@H](CO[C@@H]2OC[C@@H](O)[C@H](O)[C@H]2O)[C@@H](O)[C@H](O)[C@H]1O)[C@H]1CC[C@]2(C)[C@@H]1[C@H](O)C[C@@H]1[C@@]3(C)CC[C@H](O[C@@H]4O[C@H](CO)[C@@H](O)[C@H](O)[C@H]4O[C@@H]4O[C@H](CO)[C@@H](O)[C@H](O)[C@H]4O)C(C)(C)[C@@H]3CC[C@]12C` [Ginsenoside Rb3], the pKd is 5.71.

(Values after PMC10321280, “Inhibition of KMO Ameliorates Myocardial Ischemia Injury via Maintaining Mitochondrial Fusion and Fission Balance” (International Journal of Biological Sciences, 2023).)
